Reference: ChEMBL document CHEMBL1157539, “Thousands of chemical starting points for antimalarial lead identification” (Nature, 2010)

Tested on: Plasmodium falciparum
Experiment: GSK_TCMDC: Inhibition of Plasmodium falciparum 3D7 in whole erythrocytes, using parasite LDH activity as an index of growth.
Format: functional, organism-based

SMILES | XC50 (Plasmodium falciparum, 3D7) | XC50
CC[C@H]1CN2CC[C@H]1C[C@H]2[C@H](O)c1cc(-c2ccccc2C(F)(F)F)nc2ccc(OC)cc12 | 234 nM | 
O=C(c1cc(-c2ccco2)n[nH]1)N1CCN(S(=O)(=O)c2ccc(Cl)cc2)CC1 | 356 nM | 
O=C(Cc1c[nH]cn1)Nc1ccc(-c2cccc(-c3nc4cc(C(F)(F)F)ccc4[nH]3)c2)cc1 | 742 nM | 
c1ccc(C(c2ccccc2)N2CCN(C(c3cccnc3)c3nnnn3C3CCCC3)CC2)cc1 (stereo not given) | 1080 nM | 
CC(=O)Nc1nc(C(=O)Nc2ccc(-c3cccc(-c4nc5cccc(C)c5[nH]4)c3)cc2)cs1 | 232 nM | 
O=C(NCc1ccccc1)Nc1cccc(-c2cccc(-c3nc4cc(C(F)(F)F)ccc4[nH]3)c2)c1 | 264 nM | 
CCOc1cc(C(=O)Nc2ccc3nc(N4CCN(C)CC4)cc(C)c3c2)cc(OCC)c1OCC | 847 nM | 
Cc1cc(Nc2ccc3c(c2)CCC3)n2ncnc2n1 | 967 nM | 
c1cncc(CCNCc2ccc(-c3cccc(-c4nc5ccccc5[nH]4)c3)cc2)c1 | 164 nM | 
CC(C)(C)OC(=O)N(Cc1cc(-n2nnnc2C(F)(F)F)ccc1O)[C@H]1CCCN(C(=O)OC(C)(C)C)[C@H]1c1ccccc1 | 719 nM | 
O=C(Nc1ccc(Br)cc1)Nc1ccc(Cn2ncc(N3CCCNCC3)c(Cl)c2=O)cc1 | 1140 nM | 
N[C@@H](Cc1cc(I)c(Oc2ccc(O)c(C(=O)O)c2)c(I)c1)C(=O)O | 991 nM | 
CN(Cc1cnc2nc(N)nc(N)c2n1)c1ccc(C(=O)N[C@@H](CCC(=O)O)C(=O)O)cc1 [METHOTREXATE] | 100 nM | 178 nM
CNC(=O)Cc1ccc(C(=O)Nc2cccc(-c3ccc(-c4nc5cccc(C)c5[nH]4)s3)c2)cc1 | 632 nM | 
O=C(Nc1ccc(F)c([N+](=O)[O-])c1)Nc1cc(C(F)(F)F)ccc1Cl | 861 nM | 
CN1CCN(CC(=O)Nc2cccc(-c3ccc(-c4nc5cc(C(F)(F)F)ccc5[nH]4)cc3)c2)CC1 | 520 nM | 
Cc1nn(-c2ccccc2)c2sc(C(=O)N(CCCN(C)C)c3nc(-c4ccccc4)cs3)cc12 | 981 nM | 
COc1cccc(C=NNc2cc(C)nc3c(OC)cccc23)c1 | 578 nM | 
COc1ccc2c(N/N=C/c3ccccc3[N+](=O)[O-])cc(C)nc2c1 | 716 nM | 
CC(C)[C@H]1CC[C@H](C)C[C@@H]1OC(=O)N[C@@H](Cc1ccc(O)cc1)C(=O)NC1CCN(Cc2ccc(OCCCN(C)C)cc2)C1 (stereo not given in full) | 764 nM | 
Cn1cnc(CCNC(=O)c2cccc(-c3cccc(-c4nc5cc(C(F)(F)F)ccc5[nH]4)c3)c2)c1 | 700 nM | 
N#Cc1cc(C(=O)c2cc(Cl)ccc2O)cn(-c2cc(Cl)cc(Cl)c2)c1=O | 849 nM | 
CCNc1cc(C)nc(Nc2ccccc2)n1 | 883 nM | 

SMILES | XC50 (Plasmodium falciparum, 3D7) | XC50
c1ccc(Oc2ccc(Nc3ccnc4c(-c5ccccn5)cccc34)cc2)cc1 | 987 nM | 
O=S(=O)(Nc1cccc(CCN2CCCCC2CCN2CCCC2)c1)c1cccc2ccccc12 (stereo not given) | 819 nM | 
Cc1cc(N(C)C)nc(Nc2ccc(NC(=O)c3ccccc3C)cc2)n1 | 1130 nM | 
CCc1c(CCNCCCCCCNC(C)(C)Cc2ccc3c(c2CC)OCO3)ccc(OC)c1OC | 934 nM | 
Cc1ccc(N2C(N)=NC(N)=NC2c2ccccc2)cc1 (stereo not given) | 56.6 nM | 
Cc1ccc2c(C3=CCN(CCCCC4(C)C(=O)Nc5c(F)cccc54)CC3)c(C)[nH]c2c1 (stereo not given) | 265 nM | 
Cc1cc(Nc2ccccc2)nc(Nc2ccccc2C)n1 | 1040 nM | 
Cc1cc(C(=O)CN2C(=O)NC3(CCOc4ccccc43)C2=O)c(C)n1Cc1ccc(F)cc1 (stereo not given) | 881 nM | 
CCOc1ccc2c(=NN=Cc3ccccc3F)cc(C)[nH]c2c1 | 676 nM | 
Cc1cc(Br)c(OCCCON2C(=N)N=C(N)NC2(C)C)c(Br)c1 | 3.2 nM | 
CN(C)Cc1ccc(-c2cccc(NC(=O)c3cccc(Cl)c3)c2)cc1 | 693 nM | 
Nc1c(Cl)cc(C(O)CNCCCCCCOCCc2ccc(CO)s2)cc1Cl (stereo not given) | 1050 nM | 
COc1ccc(-c2cccc(NC(=O)c3cccs3)c2)cc1CN1CCCN(C)CC1 | 698 nM | 
COc1ccc(NC(=O)CCNc2cc(C)nc(NCCc3ccccc3)n2)cc1 | 1160 nM | 
CCCc1cccc(OC)c1OCCCON1C(N)=NC(N)=NC1(C)C | 3.2 nM | 
COc1ccc(NC(=O)[C@H](Cc2ccccc2)Nc2cc(C)nc(NCCc3ccccn3)n2)cc1 | 834 nM | 
Cc1ccc(C(O)CNc2ccnc(Nc3cccc(-c4csc(C)n4)c3)n2)cc1 (stereo not given) | 826 nM | 
COc1ccc2nc(N=C3NC4(c5ccccc5)NC(=Nc5nc6ccc(OC)cc6[nH]5)NC4(c4ccccc4)N3)[nH]c2c1 (stereo not given) | 204 nM | 
Cc1cccc2nc(-c3ccc(-c4cccc(CNCc5ccc(CN)cc5)c4)s3)[nH]c12 | 606 nM | 
CN(C)CCOc1cccc(-c2cnc(N)c(-c3nc4cc(S(C)(=O)=O)ccc4[nH]3)c2)c1 | 950 nM | 
CCCCCN1CCC(NS(=O)(=O)c2cccc(C(=O)Nc3cccc(C(F)(F)F)c3)c2)C1 (stereo not given) | 826 nM | 
O=C(Nc1ccc(OC2CCN(Cc3ccco3)CC2)c(Cl)c1)c1ccc2ncccc2c1 | 949 nM | 
Cc1nnsc1C(=O)Nc1ccc(-c2ccc(-c3nc4ccccc4[nH]3)s2)cc1 | 825 nM | 

SMILES | XC50 (Plasmodium falciparum, 3D7) | XC50
CC1CN(c2ccc(NC(=O)c3cccs3)cc2)CCN1Cc1cccc(F)c1 (stereo not given) | 492 nM | 
CN1CCN(CCCN(Cc2cccc(-c3ccc(CNCCc4ccccc4)cc3)c2)C(=O)Nc2ccccc2)CC1 | 834 nM | 
C[C@@H](Nc1nc(NCc2ccccc2)c2sccc2n1)c1ccccc1 | 919 nM | 
FC(F)(F)c1cccc(CNCC2CCN(Cc3ccc4c(c3)OCO4)CC2)c1 | 725 nM | 
CNCCCNc1ccnc2cc(Cl)ccc12 | 62.4 nM | 
OCCN1CCN(Cc2ccc(-c3cccc(-c4nc5cc(C(F)(F)F)ccc5[nH]4)c3)cc2)CC1 | 642 nM | 
COc1ccc(CN2CCC(CNCc3cccc(-c4ccccc4)c3)CC2)cc1 | 236 nM | 
O=C1OC2(CCN(C(=O)c3ccc(-n4cnnn4)cc3)CC2)CN1Cc1ccc(Cl)c(Cl)c1 | 715 nM | 
COc1ccc(N2CCN(CCCCNC(=O)c3ccc(NC(=O)c4ccc(C(F)(F)F)cc4)cc3)CC2)c(OC)c1 | 593 nM | 
Cc1[nH]c(C)c(-c2ccc(-c3ccc(Cl)cc3)nc2)c(=O)c1Br | 113 nM | 
COc1c(C2CCN(CCCCNC(=O)C=Cc3cc4cc(Cl)ccc4o3)CC2)ccc2c1CCCC2 | 1310 nM | 
CCN(CC)CCN(Cc1ccc(-c2ccc(C(F)(F)F)cc2)cc1)C(=O)Cn1c(CCc2cccc(F)c2F)cc(=O)c(C)c1C | 624 nM | 
Oc1ccc2ccccc2c1CNC1CCCCCC1 | 933 nM | 
CC[C@H]1CN2CC[C@H]1C[C@H]2[C@H](O)c1cc(Cl)nc2ccc(OC)cc12 | 578 nM | 
O=C(/C=C/c1ccc(Cl)c(Cl)c1)NCCCCCN1CCC(NC(=O)Nc2ccc(C(F)(F)F)cc2)C1 (stereo not given) | 513 nM | 
COc1ccc(Cc2cnc(N)nc2N)cc1OCCCOc1ccccc1 | 911 nM | 
c1ccc(OCCOc2ccc(Nc3ccnc4cc5ccccc5cc34)cc2)cc1 | 252 nM | 
CS(=O)(=O)Nc1ccc2[nH]cc(C3CCN(CCCCCNC(=O)/C=C/c4ccc(Cl)c(Cl)c4)CC3)c2c1 | 736 nM | 
COc1cc2c(cc1C(F)(F)F)N(C(=O)Nc1cc(F)c(F)c(-c3cccnc3)c1)CC2 | 626 nM | 
COc1ccc2nccc(N(C)CC3(O)CCC(NCc4ccc5c(n4)NC(=O)CS5)CC3)c2n1 (stereo not given) | 700 nM | 
COc1cc(NC(=O)c2cccs2)c(C(=O)NCc2ccc(C)cc2)cc1OC | 1360 nM | 
O=C(/C=C/c1ccccc1Cl)Nc1ccc(Br)c(OCCN2CCN(CCN3CCCC3)CC2)c1 | 653 nM | 
CCOC(=O)N1CCN(CCCCCNc2cc(C)nc(NC(=N)Nc3ccc(Cl)cc3)n2)CC1 | 149 nM | 
